Laboratory results taken from paper PMC9014295 (Frontiers in Pharmacology, 2022).
“Also recorded” adds a separate entry of the source.

What was measured:
[1] = system: zebrafish liver, transgenic Tg (fabp10: dsRed) zebrafish larvae; assay: Visual assessment of liver toxicity in zebrafish; type: in vivo, Danio rerio; conditions: exposure 3 dpf for 72 h, imaged at 6 dpf
Protocol: Wild-type AB strain zebrafish (Danio rerio) and transgenic Tg (fabp10: dsRed) zebrafish in this study were reared in a standard laboratory environment with a 14-h light/10-h dark cycle at 28 ± 1°C ([Chen et al., 2019]). As previously described ([Zhang et al., 2020]), 3 days post-fertilization (3 dpf), zebrafish larvae were exposed to compound solutions at different concentrations for 72 h. For visual assessment of liver toxicity in zebrafish, the tested zebrafish larvae were imaged by using a fluorescence microscope to observe the liver phenotype of zebrafish larvae, 20 larvae per group.

[2] = cited from earlier work; for Hepatotoxicity compared with erythromycin: ref Björnsson, 2017
human L02 cells [3] = assay: Cell viability of L02 cells by CCK-8 assay; type: cell-based; conditions: 24 h, different concentrations
Protocol: As previously described by [Zhang et al. (2020]), the human L02 cells were incubated with each macrolide compounds at different concentrations for 24 h. For cell viability, Cell Counting Kit-8 (CCK-8; Dojindo, CK04) was used by following the manufacturer’s protocol and the absorbance of each well was measured at 450 nm using a microplate reader. For cell toxicity, the level of lactate dehydrogenase (LDH) release was determined by LDH activity assay kits (Dojindo, CK12) according to the manufacturer’s specification, and the absorbance at 490 nm in each well was measured by a microplate reader.

[4] = system: c-fos gene expression in L02 cells; assay: qRT-PCR of c-fos gene expression in L02 cells; type: cell-based, human; conditions: β-actin reference
Protocol: (§1) As previously described by [Zhang et al. (2020]), the treated zebrafish larvae liver and human L02 cells were collected for the qRT-PCR analysis. Total RNA were extracted from L02 cells and the dissected liver of larvae by using TRIzol reagent (Sigma–Aldrich, Saint Louis, MO, United States) and synthesized cDNA using M-MLV reverse transcriptase (Promega, M1708). The reaction of qRT-PCR was performed by LightCycler480. The relative mRNA levels were calculated with β-actin as the reference gene using the comparative […] quantization method. The specific primers (5′-3′) for amplification in zebrafish are as follows: fosab (F: TTACCAGCCTTAACGCCGAC, R: TGGACCATCCACTGCAAGTC), β-actin (F: CCGTGACATCAAGGAGAAG, R: ATACCGCAAGATTCCATACC). The primer sequences (5′-3′) for qRT-PCR in L02 cells are as follows: c-fos (F: TACTACCACTCACCCGCAGA, R: GGCCTCCTGTCATGGTCTTC), β-actin (F: CACCATTGGCAATGAGCGGTTC, R: AGGTCTTTGCGGATGTCCACGT).

zebrafish fosab gene = assay: RNA-seq analysis of zebrafish larvae liver (fosab); type: in vivo, Danio rerio; conditions: 2 mM; for Fold change of fosab gene (RNA-seq): exposed 3 dpf, collected 6 dpf
Protocol: As previously described ([Han et al., 2018a]), the process of ribonucleic acid sequencing (RNA-seq) analysis was carried out by CapitalBio Corporation (Beijing, China). […] Cytoscape software was employed to map the drug–pathway network.

[5] = system: fosab gene expression in zebrafish liver; assay: qRT-PCR of fosab gene expression in zebrafish liver; type: in vivo, Danio rerio; conditions: β-actin reference
Protocol: as §1

human L02 cells [6] = assay: LDH release assay in L02 cells; type: cell-based; conditions: 24 h, different concentrations
Protocol: As previously described by [Zhang et al. (2020]), the human L02 cells were incubated with each macrolide compounds at different concentrations for 24 h. […] For cell toxicity, the level of lactate dehydrogenase (LDH) release was determined by LDH activity assay kits (Dojindo, CK12) according to the manufacturer’s specification, and the absorbance at 490 nm in each well was measured by a microplate reader.

SMILES	Liver phenotype of zebrafish larvae ([1]; 0.5 mm)	c-fos mRNA level (qRT-PCR) [4]	Effect on fosab mRNA level (RNA-seq, GO enrichment analysis) (zebrafish fosab gene)	Fold change of fosab gene (RNA-seq) (zebrafish fosab gene)	also measured
CC[C@H]1OC(=O)[C@H](C)[C@@H](O[C@H]2C[C@@](C)(OC)[C@@H](O)[C@H](C)O2)[C@H](C)[C@@H](O[C@@H]2O[C@H](C)C[C@H](N(C)C)[C@H]2O)[C@](C)(O)C[C@@H](C)CN(C)[C@H](C)[C@@H](O)[C@]1(C)O [Azithromycin]	hepatomegaly				Liver phenotype of zebrafish larvae ([1]; 0.1 mM): no toxicity to zebrafish liver; Liver phenotype of zebrafish larvae ([1]; 1 mm): blackened liver tissue; Hepatotoxicity compared with erythromycin [2]: higher hepatotoxicity than erythromycin
CC[C@H]1OC(=O)[C@H](C)[C@@H](O[C@H]2C[C@@](C)(OC)[C@@H](O)[C@H](C)O2)[C@H](C)[C@@H](O[C@@H]2O[C@H](C)C[C@H](N(C)C)[C@H]2O)[C@](C)(OC)C[C@@H](C)C(=O)[C@H](C)[C@@H](O)[C@]1(C)O [Clarithromycin]					Hepatotoxicity compared with erythromycin [2]: less hepatotoxicity than erythromycin
CCC1OC(=O)C(C)C(OC2CC(C)(OC)C(O)C(C)O2)C(C)C(OC2OC(C)CC(N(C)C=O)C2O)C(C)(O)CC(C)CN(C)C(C)C(O)C1(C)O (stereo not drawn) [Impurity F]	nearly non-toxic to zebrafish liver	did not affect	no significant effect		Liver phenotype of zebrafish larvae ([1]; 1 mm): nearly non-toxic to zebrafish liver; Cytotoxicity / cell viability (CCK-8) (human L02 cells [3]): less cytotoxicity
CCC1OC(=O)C(C)C(OC2CC(C)(OC)C(O)C(C)O2)C(C)C(OC2OC(C)CC(NC)C2O)C(C)(O)CC(C)CN(C)C(C)C(O)C1(C)O (stereo not drawn) [Impurity I]		significantly upregulated	upregulated significantly	2.14	
CCC1OC(=O)C(C)C(O)C(C)C(OC2OC(C)CC(N(C)C)C2O)C(C)(O)CC(C)CN(C)C(C)C(O)C1(C)O (stereo not drawn) [Impurity J]		significantly upregulated	upregulated significantly	2.92	
CCC1OC(=O)C(C)C(OC2CC(C)(OC)C(O)C(C)O2)C(C)C(OC2OC(C)CC([N+](C)(C)[O-])C2O)C(C)(O)CC(C)CN(C)C(C)C(O)C1(C)O (stereo not drawn) [Impurity L]	liver tissue became black	significantly upregulated; also recorded: greatest effect	upregulated significantly	4.10	Liver phenotype of zebrafish larvae ([1]; 0.1 mM): hepatomegaly and caused the liver lost transparency with a brown coloration; fosab mRNA level (qRT-PCR) [5]: greatest effect
CCC1OC(=O)C(C)C(OC2CC(C)(OC)C(O)C(C)O2)C(C)C(OC2OC(C)CC(N(C)C)C2O)C2(C)CC(C)C(=NC(C)C(O)C1(C)O)O2 (stereo not drawn) [Impurity Q]		significantly upregulated	upregulated significantly	3.07	
CCC1OC(=O)C(C)C(OC2CC(C)(OC)C(O)C(C)O2)C(C)C(OC2OC(C)CC(N(C)C)C2O)C(C)(O)CC(C)C2=NC(C)C(O2)C1(C)O (stereo not drawn) [Impurity R]		significantly upregulated; also recorded: moderately lower than azithromycin	upregulated significantly	2.18	
CCC1OC(=O)C(C)C(OC2CC(C)(OC)C(O)C(C)O2)C(C)C(OC2OC(C)CC(N(C)C)C2O)C(C)(O)CC(C)C(=NO)C(C)C(O)C1(C)O (stereo not drawn) [Impurity S]		did not affect	no significant effect		Cytotoxicity / cell viability (CCK-8) (human L02 cells [3]): less cytotoxicity
CC[C@H]1OC(=O)[C@H](C)[C@@H](O[C@H]2C[C@@](C)(OC)[C@@H](O)[C@H](C)O2)[C@H](C)[C@@H](O[C@@H]2O[C@H](C)C[C@H](N(C)C)[C@H]2O)[C@](C)(O)C[C@@H](C)/C(=N\OCOCCOC)[C@H](C)[C@@H](O)[C@]1(C)O [Roxithromycin]					Hepatotoxicity compared with erythromycin [2]: less hepatotoxicity than erythromycin
CC[C@H]1OC(=O)[C@H](C)C(=O)[C@H](C)[C@@H](O[C@@H]2O[C@H](C)C[C@H](N(C)C)[C@H]2O)[C@](C)(OC)C[C@@H](C)C(=O)[C@H](C)[C@H]2N(CCCCn3cnc(-c4cccnc4)c3)C(=O)O[C@]12C [Telithromycin]	a dark coloration and amorphous liver	significantly elevated			Liver phenotype of zebrafish larvae ([1]; 0.1 mM): hepatomegaly; Cytotoxicity / cell viability (CCK-8) (human L02 cells [3]): higher cytotoxicity than azithromycin; Cytotoxicity (LDH release) (human L02 cells [6]): higher cytotoxicity than azithromycin; fosab mRNA level (qRT-PCR) [5]: significantly elevated; Liver injury in clinical use ([2]; ref Author Anonymous, 2012): pulled from the market due to severe acute liver injury
